Experimental data: patent publication US11260042B2, “Pharmaceutical combination for the treatment of cancer” (ABILITY PHARMACEUTICALS S.L., priority 2017, dated 2022)
pIC50: −log10 of the molar value. Entries after “also recorded” stand apart in the source; their conditions may differ. Like-named read-outs stand apart in the source and are kept apart here.

What was measured:
[1] = system: A549 (human lung carcinoma) cell line with mutated KRAS; assay: Cell viability (MTT) of ABTL0812 in combination with paclitaxel, A549; assay type: cell-based; conditions: A549, 72 hours, 0.1% FBS, single agent
Protocol: (§1) Methods: A549 cells were incubated with increasing concentrations of ABTL0812 (3-300 μM), paclitaxel (0.003-1 μM), or a combination of both using subIC50 fixed concentration of ABTL0812 and 0.003-1 μM paclitaxel for 72 hours in DMEM with 0.1% FBS. H157, H1957 and HTB-812 cells were incubated with increasing concentrations of paclitaxel (0.001-10 μM) alone and in combination with subIC50 fixed concentration of ABTL0812 for 48 hours in DMEM with 0.1% FBS. Cell viability was evaluated in all cases by MTT assay and IC50's were calculated for paclitaxel and the combination. The concentrations of the combinations for the different cell lines were:
(§2) Finally, the Combination Index (CI), as described in the previous section, was calculated for the values of paclitaxel IC50.

H1957 cells = assay: Cell viability (MTT) of ABTL0812 in combination with paclitaxel, H1957; assay type: cell-based, human; conditions: H1957, 48 hours, 0.1% FBS, single agent
Protocol: as §1, §2

HTB-812 cells = assay: Cell viability (MTT) of ABTL0812 in combination with paclitaxel, HTB-812; assay type: cell-based, human; conditions: HTB-812, 48 hours, 0.1% FBS, single agent
Protocol: as §1, §2

[2] = system: MiaPaca2 (human pancreatic carcinoma); assay: Cell viability (MTT) of ABTL0812 alone or with gemcitabine in pancreatic cancer; assay type: cell-based
Protocol: Methods: MiaPaca2 cells were seeded in 24-well plates together with gemcitabine (0.01-100 μM), ABTL812 (3-300 μM), or a combination of both (subIC50, i.e., 25 μM fixed concentration of ABTL0812 with 0.01-100 μM gemcitabine) and left in the incubator for 72h (0.5% FBS). Cell viability was studied by the MTT assay and several parameters were determined to evaluate a possible synergism. First the IC50 for each drug alone or the combination was calculated. Then, synergism (CI) was calculated as described above.

[3] = system: A549 human lung adenocarcinoma xenograft; assay type: in vivo; conditions: ABTL0812 30 mg/kg/day oral 5 times a week; docetaxel 5 mg/kg i.p. once a week
Protocol: Methods: Mice were injected with 5×10^6 A549 cells in each flank to induce tumor formation. […] ABTL0812 was administered by the oral route at 30 mg/kg/day, 5 times a week. Docetaxel 5 mg/kg was administered intra-peritoneally once a week (Coxon et al. 2012). Tumor volume and body weight were monitorized 3 times a week.

[4] = system: MiaPaca2 human pancreatic cancer xenograft; assay type: in vivo; conditions: ABTL0812 120 mg/kg oral; P/Gm 15 mg/kg and 60 mg/kg two times per week; 4 weeks
Protocol: Methods: Athymic female nude mice (n=9 per group) were injected via subcutaneous route with 0.1 ml of MiaPaca2 cells (5×10^6 cell/ml in serum free DMEM media in 1:1 with matrigel) in one flank. Tumor Volumes (TV) were measured as length×width^2×½ three times a week.

[5] = system: MiaPaca2 human pancreatic cancer xenograft; assay: Human pancreatic xenograft (MiaPaca-2), gemcitabine and Nab-paclitaxel/gemcitabine; assay type: in vivo, Athymic Nude-Foxn1nu female mice; conditions: ABTL0812 120 mg/kg oral 5 times a week; gemcitabine 60 mg/kg, Nab-Paclitaxel 5 mg/kg i.p. 2 times a week (suboptimal chemotherapy dose)
Protocol: It is important to change the site of injection to avoid intestinal necrosis and keep Nab-Paclitaxel and gemcitabine injections as far as possible one from the other in mice abdomen. • Gemcitabine+ABTL0812 (n=10): treated orally with 120 mg/kg of ABTL0812 in 200 μl of distilled water+5% glycerol, 5 times a week and with 60 mg/kg of gemcitabine administered i.p in 100 μl of sterile water, 2 times a week. ABTL0812 was always administered before chemotherapy with the aim of reducing the stress derived from the i.p. injection, that is normally applied as the last administration. • Gemcitabine+Nab-Paclitaxel+ABTL0812 (n=8): treated orally with 120 mg/kg of ABTL0812 in 200 μl of distilled water+5% glycerol, 5 times a week, with 60 mg/kg of gemcitabine administered i.p. in 100 μl of sterile water, 2 times a week and with 5 mg/kg of Nab-Paclitaxel administered i.p. in 230 μl of 0.9% NaCl solution 2 times a week. As in the gemcitabine+Nab-Paclitaxel group, injections where administered in separated areas of the abdomen. […]
Treatment efficacy was assessed by measuring tumor volume three days a week. Additionally, total body weight was monitored three days a week to test the toxicity associated with the treatments in addition to visual examination of signs indicative of clinicopathological symptoms. […]

[6] = system: EGI-1 human cholangiocarcinoma xenograft; assay: Human cholangiocarcinoma (EGI-1) xenograft, gemcitabine and cisplatin; assay type: in vivo, Nu/nu male mice; conditions: ABTL0812 120 mg/kg oral; gemcitabine 50 mg/kg and cisplatin 2 mg/kg i.p. once a week
Protocol: Methods: EGI-1 cell line was routinely cultured in DMEM 10% FBS and cells in an exponential growth phase were harvested and counted for tumor inoculation.
Treatment groups were: • Vehicle group (n=8): treated orally with 200 μl of water+5% glycerol four days a week and two injections i.p. of 100 μl of saline solution once a week • ABTL0812 (n=8): treated orally with 200 μl of 120 mg/kg of ABTL0812 resuspended in water+5% glycerol 5 times a week • Gemcitabine/cisplatin (n=8): treated with 100 μl of 50 mg/kg of gemcitabine administered i.p. and 100 μl of 2 mg/kg of cisplatin administered i.p. once a week • ABTL0812+gemcitabine/cisplatin (n=8): treated orally with 200 μl of 120 mg/kg of ABTL0812 four days a week and 100 μl of 50 mg/kg of gemcitabine administered i.p. and 100 μl of 2 mg/kg of cisplatin administered i.p. once a week

[7] = system: human endometrial cancer patient derived xenograft; assay: Patient-derived xenograft (PDX) endometrial model, paclitaxel and carboplatin
Protocol: After tumors grew up to 100 mm^3, tumors were extracted from mice, minced in 2 mm long pieces and re-implanted in one flank of 40 mice. When average tumor volume reached 100 mm^3, mice were randomly distributed into treatment groups, and dosed as follows: vehicle (n=11); ABTL0812: 120 mg/kg orally, 5 times per week (n=10); paclitaxel/carboplatin (P/C): P:50 mg/kg/C:15 mg/kg intraperitoneal (n=12); and ABTL0812+P/C: ABTL0812 (n=10) was administered always two days prior to the first P/C administration and two days after, maintaining 4 doses of ABTL0812 and one of P/C per week; doses were the same as when given separately.
The effectiveness of the therapy was measured by the impact of the treatment on the tumor growth, which was measured by its volume. The health state of the animals and the drug-induced toxicity were determined by the animal body weight during the study. Tumor size evolution and tumor weight were evaluated by two-way ANOVA (day by day analysis).
In order to simulate the Phase II clinical trial design, where ABTL0812 will be administered chronically after P/C cycles, P/C treatment was removed from P/C and ABTL0812+P/C groups, maintaining ABTL0812 chronically. Tumor volume was measure after P/C treatment removal during an extra 17 days.

`CCCCC/C=C\C/C=C\CCCCCCC(O)C(=O)O` (stereo not drawn) [ABTL0812, COOH—CHOH—(CH2)6—(CH═CH—CH2)2—(CH2)3—CH3] was tested, and the pIC50 [1] was 4.31, the pIC50 (H1957 cells) was 4.37 and the pIC50 (HTB-812 cells) was 4.54. The “cytotoxicity alone at the concentration chosen for the combination” value ([2]; MiaPaca2, 25 μM ABTL0812) was less than 10%, the pIC50 ([2]; MiaPaca2, 72h, 0.5% FBS, MTT, single agent) was 4.31 and the tumor volume [3] was “significantly reduced tumor volume when compared to control animals”. For the same compound, the tumor volume [4] was “positive effect within the first 15 days after treatment, showing similar tumor volume to vehicle group in the following days”, the tumor volume [5] was “better response in tumor volume evolution than Gem+Nab-Pac group during the first 20 days of treatment; also recorded: better response in tumor volume evolution than Gem group during the whole study” and the tumor volume [6] was “did not show tumor volume reduction compared to vehicle until the last day of treatment”. The “tumor growth after P/C removal” value ([7]; after day 47, P/C stopped, ABTL0812 maintained chronically, extra 17 days) was “tumor growth inhibition very similar to P/C”, the “tumor growth (volume)” value ([7]; first 47 days, ABTL0812 120 mg/kg orally, P 50 mg/kg / C 15 mg/kg i.p.) was “same efficacy as P/C” and the “total body weight, toxicity” value ([7]; mouse, in vivo) was “without any signs of relevant toxicity; also recorded: Body weight reduction was observed partially only in ABTL0812 group at day 15”.
